From ChEMBL document CHEMBL1201862, “PubChem BioAssay data set” (2004)
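Grown in 96-well plates, cells were treated for 48 hours with each compound at five concentrations. Insufficient inhibition: endpoint recorded as highest concentration tested. Abbreviation: GI50, concentration required for 50% inhibition of growth.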 Activity calls are given as the source filed them. Cut-off read from the data, not from the text of the source: active = GI50 up to about 1.1 µM and inactive = higher.

Legend:
Test in all cases: growth of human tumour cells (NCI), 48 h
A549 = tested on: A549
SR = tested on: SR
IGROV-1 = tested on: IGROV-1
UO-31 = tested on: UO-31
MOLT-4 = tested on: MOLT-4
NCI-H226 = tested on: NCI-H226
HCT-15 = tested on: HCT-15
OVCAR-4 = tested on: OVCAR-4
SK-MEL-2 = tested on: SK-MEL-2
OVCAR-3 = tested on: OVCAR-3
RPMI-8226 = tested on: RPMI-8226
HT-29 = tested on: HT-29
COLO 205 = tested on: COLO 205
U-251 = tested on: U-251
DLD-1 = tested on: DLD-1
HCC 2998 = tested on: HCC 2998
HOP-62 = tested on: HOP-62
SF-539 = tested on: SF-539
ACHN = tested on: ACHN
MDA-N = tested on: MDA-N

O=NN(CCCl)C(=O)NC1CCC(CC2CCC(NC(=O)N(CCCl)N=O)CC2)CC1 (configuration not stated)
GI50 (A549): 33 µM (inactive) | GI50 (SR): 17.9 µM (inactive) | GI50 (IGROV-1): 29.9 µM (inactive) | GI50 (UO-31): 46.1 µM (inactive) | GI50 (MOLT-4): 1.21 µM (inactive) | GI50 (NCI-H226): 79.3 µM (inactive) | GI50 (HCT-15): 39.9 µM | GI50 (OVCAR-4): 28.8 µM (inactive) | GI50 (SK-MEL-2): 39.1 µM (inactive) | GI50 (OVCAR-3): 27.8 µM (inactive) | GI50 (RPMI-8226): 1.96 µM (inactive) | GI50 (HT-29): > 100 µM (inactive) | GI50 (COLO 205): > 48.1 µM (inactive) | GI50 (U-251): 1.24 µM (inactive) | GI50 (DLD-1): 23.6 µM (inactive) | GI50 (HCC 2998): > 100 µM (inactive) | GI50 (HOP-62): 1.97 µM (inactive) | GI50 (SF-539): 0.817 µM (active) | GI50 (ACHN): 38.1 µM (inactive)

Cc1cc(NC(=O)C(=O)Cc2nc3ccccc3s2)ccc1Cl
GI50 (A549): > 100 µM (inactive) | GI50 (SR): > 100 µM (inactive) | GI50 (IGROV-1): > 100 µM (inactive) | GI50 (UO-31): > 100 µM (inactive) | GI50 (MOLT-4): > 100 µM (inactive) | GI50 (NCI-H226): > 100 µM (inactive) | GI50 (HCT-15): > 100 µM | GI50 (OVCAR-4): > 100 µM (inactive) | GI50 (SK-MEL-2): > 100 µM (inactive) | GI50 (OVCAR-3): > 100 µM (inactive) | GI50 (RPMI-8226): > 100 µM (inactive) | GI50 (HT-29): > 100 µM (inactive) | GI50 (COLO 205): > 100 µM (inactive) | GI50 (U-251): > 100 µM (inactive) | GI50 (DLD-1): > 100 µM (inactive) | GI50 (HCC 2998): > 100 µM (inactive) | GI50 (HOP-62): > 100 µM (inactive) | GI50 (SF-539): > 100 µM (inactive) | GI50 (ACHN): > 100 µM (inactive) | GI50 (MDA-N): > 100 µM (inactive)

CCOC(=O)/C(=C/c1ccccn1)C(=O)c1ccccc1
GI50 (A549): 19.2 µM (inactive) | GI50 (SR): 3.32 µM (inactive) | GI50 (IGROV-1): 16.3 µM (inactive) | GI50 (UO-31): 16.3 µM (inactive) | GI50 (MOLT-4): 8.34 µM (inactive) | GI50 (NCI-H226): 15.9 µM (inactive) | GI50 (HCT-15): 13.2 µM | GI50 (OVCAR-4): 16.1 µM (inactive) | GI50 (SK-MEL-2): 13.9 µM (inactive) | GI50 (OVCAR-3): 14.1 µM (inactive) | GI50 (RPMI-8226): 3.42 µM (inactive) | GI50 (HT-29): 13.9 µM (inactive) | GI50 (COLO 205): 14.2 µM (inactive) | GI50 (U-251): 14.3 µM (inactive) | GI50 (DLD-1): 10.4 µM (inactive) | GI50 (HCC 2998): 17.3 µM (inactive) | GI50 (HOP-62): 15.2 µM (inactive) | GI50 (SF-539): 16.7 µM (inactive) | GI50 (ACHN): 20.4 µM (inactive)

CC(=O)NC1COC(COC(=O)CCCCCCCCCCNC(=O)c2ccc([N+](=O)[O-])c3c(=O)c4ccccc4[nH]c23)C(O)C1OC(C)C(=O)NC(C(=O)NC(CCC(N)=O)C(=O)OCc1ccccc1)C(C)C (configuration not stated)
GI50 (A549): 25 µM (inactive) | GI50 (SR): 7.08 µM (inactive) | GI50 (IGROV-1): 6.38 µM (inactive) | GI50 (UO-31): 8.41 µM (inactive) | GI50 (MOLT-4): 18.6 µM (inactive) | GI50 (NCI-H226): 44.9 µM (inactive) | GI50 (HCT-15): 11.2 µM | GI50 (OVCAR-4): 8.26 µM (inactive) | GI50 (SK-MEL-2): 11 µM (inactive) | GI50 (OVCAR-3): 3.57 µM (inactive) | GI50 (RPMI-8226): 4.97 µM (inactive) | GI50 (HT-29): 6.67 µM (inactive) | GI50 (COLO 205): 18.8 µM (inactive) | GI50 (U-251): 11.5 µM (inactive) | GI50 (DLD-1): 3.21 µM (inactive) | GI50 (HCC 2998): 5.96 µM (inactive) | GI50 (HOP-62): 7.45 µM (inactive) | GI50 (SF-539): 20.8 µM (inactive) | GI50 (ACHN): 14.8 µM (inactive) | GI50 (MDA-N): 0.966 µM (active)

Cc1c2ccc3ccccc3c2c[n+]2ccccc12
GI50 (A549): 3.72 µM (inactive) | GI50 (SR): 2.96 µM (inactive) | GI50 (IGROV-1): 43.5 µM (inactive) | GI50 (UO-31): 17.5 µM (inactive) | GI50 (MOLT-4): 4.66 µM (inactive) | GI50 (NCI-H226): 4.67 µM (inactive) | GI50 (HCT-15): 59.2 µM | GI50 (OVCAR-4): 12 µM (inactive) | GI50 (SK-MEL-2): 11.6 µM (inactive) | GI50 (OVCAR-3): 5.85 µM (inactive) | GI50 (RPMI-8226): 19.5 µM (inactive) | GI50 (HT-29): 27.5 µM (inactive) | GI50 (COLO 205): 2.82 µM (inactive) | GI50 (U-251): 1.66 µM (inactive) | GI50 (DLD-1): 24 µM (inactive) | GI50 (HCC 2998): 4.92 µM (inactive) | GI50 (HOP-62): 7.93 µM (inactive) | GI50 (SF-539): 8.41 µM (inactive) | GI50 (ACHN): 56.5 µM (inactive) | GI50 (MDA-N): 6.71 µM (inactive)

CO/C1=C\C(C)=C\C(C)C(O)C(C)C/C(C)=C/C=C/C(OC)C(C(C)C(O)C(C)C2(O)CC(O)C(C)C(C(C)C)O2)OC1=O (configuration not stated)
GI50 (A549): 0.00101 µM (active) | GI50 (SR): 9.08e-05 µM (active) | GI50 (IGROV-1): 0.00223 µM (active) | GI50 (UO-31): 0.00278 µM (active) | GI50 (MOLT-4): 0.0022 µM (active) | GI50 (NCI-H226): 0.0134 µM (active) | GI50 (HCT-15): 0.000143 µM | GI50 (OVCAR-4): 0.01 µM (active) | GI50 (SK-MEL-2): 0.00453 µM (active) | GI50 (OVCAR-3): 0.00434 µM (active) | GI50 (RPMI-8226): 0.00151 µM (active) | GI50 (HT-29): 6.64e-05 µM (active) | GI50 (COLO 205): 0.00343 µM (active) | GI50 (U-251): 0.00706 µM (active) | GI50 (DLD-1): 7.05e-05 µM (active) | GI50 (HCC 2998): 0.000757 µM (active) | GI50 (HOP-62): 5.1e-05 µM (active) | GI50 (SF-539): 0.00193 µM (active) | GI50 (ACHN): 0.0148 µM (active) | GI50 (MDA-N): 0.00182 µM (active)

CC(C)c1ccc(O)c(=O)cc1 [GAMMA-THUJAPLICIN]
GI50 (A549): 6.59 µM (inactive) | GI50 (SR): 1.66 µM (inactive) | GI50 (IGROV-1): 10.4 µM (inactive) | GI50 (UO-31): 3.42 µM (inactive) | GI50 (MOLT-4): 2.79 µM (inactive) | GI50 (NCI-H226): 3.99 µM (inactive) | GI50 (HCT-15): 4.59 µM | GI50 (OVCAR-4): 7.11 µM (inactive) | GI50 (SK-MEL-2): 5 µM (inactive) | GI50 (OVCAR-3): 2.48 µM (inactive) | GI50 (RPMI-8226): 5.13 µM (inactive) | GI50 (HT-29): 4.73 µM (inactive) | GI50 (COLO 205): 3.74 µM (inactive) | GI50 (U-251): 7.29 µM (inactive) | GI50 (DLD-1): 5.56 µM (inactive) | GI50 (HCC 2998): 7.08 µM (inactive) | GI50 (HOP-62): 4.41 µM (inactive) | GI50 (SF-539): 2.38 µM (inactive) | GI50 (ACHN): 6.05 µM (inactive)
